In patent US9017700B2, “Production of a viable, storable worm egg suspension” (Dr. Falk Pharma GmbH, priority 2008, dated 2015):
Marks after values point to notes of the source that are not given here.

What was measured:
Escherichia coli [1] = test: Colony number in TSO samples at pH 4 with preservatives; assay type: cell-based; settings: 10 000 TSO/ml in phosphate buffer pH 4, 25° C.; for T 1d: 1 day; for T 7d: 7 days
Procedure: (§1) Raising the pH from pH 2 to pH 4 and addition of preservatives Experimental conditions for examples 4a to 4e: […] The following microorganisms were added to the test samples: • Aspergillus niger in the form of an individual microorganism • Pseudomonas aruginosa, Staphylococcus aureus, Candida albicans and Escherichia coli in combination. The incubation temperature was 25° C. The test plates were evaluated after 1 to 7 days.

Staphylococcus aureus = test: as above; assay type: cell-based; settings: 10 000 TSO/ml in phosphate buffer pH 4, 25° C.; for T 1d: 1 day; for T 7d: 7 days
Procedure: as §1

Psuedomonas aeruginosa = test: as above; assay type: cell-based; settings: 10 000 TSO/ml in phosphate buffer pH 4, 25° C.; for T 1d: 1 day; for T 7d: 7 days
Procedure: as §1

Aspergillus niger [2] = test: as above; assay type: cell-based; settings: 10 000 TSO/ml in phosphate buffer pH 4, 25° C.; for T 1d: 1 day; for T 7d: 7 days
Procedure: as §1

Candida albicans [3] = test: as above; assay type: cell-based; settings: 10 000 TSO/ml in phosphate buffer pH 4, 25° C.; for T 1d: 1 day; for T 7d: 7 days
Procedure: as §1

Penicillium brevicomp. = test: Microbial count after H2SO4 treatment of inoculated nutrient suspension (test molds); assay type: cell-based
Aspergillus niger [4] = test: as above; assay type: cell-based
Saccharomyces cer. = test: Microbial count after H2SO4 treatment of inoculated nutrient suspension (test yeasts); assay type: cell-based
Candida albicans [5] = test: as above; assay type: cell-based
feline calicivirus (FCV) = assay type: cell-based; settings: pH 2, 30° C., with TSO; after 3 h
porcine parvovirus (PPV) = assay type: cell-based; settings: pH 2, 30° C., with TSO; after 3 h
Salmonella typhymurium = test: Microbial count after H2SO4 treatment of inoculated nutrient suspension (test bacteria); settings: pH 2, 6 h at 30° C.
[6] = system: murine leukemia virus (MuLV); assay type: cell-based; settings: pH 2, 30° C., with TSO; after 10 min
Escherichia coli [7] = test: Microbial count after H2SO4 treatment of inoculated nutrient suspension (test bacteria); settings: pH 2, 6 h at 30° C.
[8] = system: microorganisms in Trichuris suis egg suspension (TSO); test: Depletion of microorganisms in a T. suis egg suspension (microbial count per DAB 2.6.12); assay type: cell-based; settings: TSO 2400 eggs/ml rebuffered to pH 2; after storage for 3 h at 30° C.
Procedure: The microbial count in a Trichuris suis egg suspension (TSO) in phosphate buffer (pH 7) at a concentration of 2400 eggs/ml was determined as specified in the DAB (German Pharmacopoeia, section 2.6.12, last updated with the 24th Supplement in 2006). […] This suspension was then rebuffered to pH 2 in dilute H2SO4 solution.

Clostridium sporog. = test: Microbial count after H2SO4 treatment of inoculated nutrient suspension (test bacteria); assay type: cell-based; settings: pH 2, 6 h at 30° C.
pseudorabies virus (PRV) = assay type: cell-based; settings: pH 2, 30° C., with TSO; after 10 min
Staphylococus aureus = test: Microbial count after H2SO4 treatment of inoculated nutrient suspension (test bacteria); settings: pH 2, 6 h at 30° C.
Bacillus subtilis = test: as above; settings: pH 2, 6 h at 30° C.

Structure (SMILES) | T 1d (Escherichia coli [1]) [cfu/ml] | T 7d (Escherichia coli [1]) [cfu/ml] | T 0 (Escherichia coli [1]) | T 1d (Staphylococcus aureus) | T 7d (Staphylococcus aureus) [cfu/ml] | T 0 (Staphylococcus aureus) | T 1d (Psuedomonas aeruginosa) [cfu/ml] | T 7d (Psuedomonas aeruginosa) [cfu/ml] | T 0 (Psuedomonas aeruginosa) | T 1d (Aspergillus niger [2]) | T 7d (Aspergillus niger [2]) [cfu/ml] | T 0 (Aspergillus niger [2]) | T 1d (Candida albicans [3]) [cfu/ml] | T 7d (Candida albicans [3]) [cfu/ml] | T 0 (Candida albicans [3]) | also measured
O=C(O)c1ccccc1 [Benzoic acid 0.2%, Benzoic acid] | <10 | <10 | 140 000 cfu/ml | <10 cfu/ml | <10 | 130 000 cfu/ml | <10 | <10 | 180 000 cfu/ml | 90 cfu/ml | <10 | 120 000 cEu/ml | <10 | <10 | 240 000 cfu/ml | –
O=S(=O)(O)O [H2SO1 pH 0, H2SO4] | – | – | – | – | – | – | – | – | – | – | – | – | – | – | – | microbial count T3h H2SO1 pH 0 (Penicillium brevicomp.; pH 0, 3 h at 25° C.): 70 cfu; microbial count T48h H2SO1 pH 0 (Penicillium brevicomp.; pH 0, 48 h at 25° C.): <10 cfu; microbial count T3h H2SO1 pH 0 (Aspergillus niger [4]; pH 0, 3 h at 25° C.): 50 cfu; microbial count T48h H2SO1 pH 0 (Aspergillus niger [4]; pH 0, 48 h at 25° C.): <10 cfu
O=S(=O)(O)O [H2SO4 pH 1, H2SO4] | – | – | – | – | – | – | – | – | – | – | – | – | – | – | – | microbial count T3h H2SO4 pH 1 (Penicillium brevicomp.; pH 1, 3 h at 25° C.): 39 000 cfu; microbial count T48h H2SO4 pH 1 (Penicillium brevicomp.; pH 1, 48 h at 25° C.): 14 000 cfu; microbial count T3h H2SO4 pH 1 (Saccharomyces cer.; pH 1, 3 h at 25° C.): 39 000 cfu; microbial count T48h H2SO4 pH 1 (Saccharomyces cer.; pH 1, 48 h at 25° C.): 40* cfu; microbial count T3h H2SO4 pH 1 (Candida albicans [5]; pH 1, 3 h at 25° C.): 26 000 cfu; microbial count T48h H2SO4 pH 1 (Candida albicans [5]; pH 1, 48 h at 25° C.): <10 cfu; microbial count T3h H2SO4 pH 1 (Aspergillus niger [4]; pH 1, 3 h at 25° C.): 500 000 cfu; microbial count T48h H2SO4 pH 1 (Aspergillus niger [4]; pH 1, 48 h at 25° C.): 500 000 cfu
O=S(=O)(O)O [H2SO4 pH 2, H2SO4] | – | – | – | – | – | – | – | – | – | – | – | – | – | – | – | viral activity (feline calicivirus (FCV)): no longer infectious; viral activity (porcine parvovirus (PPV)): no longer infectious; microbial count, H2SO4 pH 2 after 6 h (Salmonella typhymurium): <10 colony-forming units; viral activity [6]: no longer infectious; microbial count, H2SO4 pH 2 after 6 h (Escherichia coli [7]): <10 colony-forming units; microbial count T3h H2SO4 pH 2 (Penicillium brevicomp.; pH 2, 3 h at 25° C.): 90 000 cfu; microbial count T48h H2SO4 pH 2 (Penicillium brevicomp.; pH 2, 48 h at 25° C.): 32 000 cfu; microbial count [8]: < 20 cfu/ml; microbial count T3h H2SO4 pH 2 (Saccharomyces cer.; pH 2, 3 h at 25° C.): 380 000 cfu; microbial count T48h H2SO4 pH 2 (Saccharomyces cer.; pH 2, 48 h at 25° C.): 220 000 cfu; microbial count, H2SO4 pH 2 after 6 h (Clostridium sporog.): <10 colony-forming units; microbial count T3h H2SO4 pH 2 (Candida albicans [5]; pH 2, 3 h at 25° C.): 380 000 cfu; microbial count T48h H2SO4 pH 2 (Candida albicans [5]; pH 2, 48 h at 25° C.): 32 000 cfu; microbial count T3h H2SO4 pH 2 (Aspergillus niger [4]; pH 2, 3 h at 25° C.): 370 000 cfu; microbial count T48h H2SO4 pH 2 (Aspergillus niger [4]; pH 2, 48 h at 25° C.): 700 000 cfu; viral activity (pseudorabies virus (PRV)): no longer infectious; microbial count, H2SO4 pH 2 after 6 h (Staphylococus aureus): <10 colony-forming units; microbial count, H2SO4 pH 2 after 6 h (Bacillus subtilis): 20* colony-forming units
CC(O)CO (stereo not shown) [Propylene glycol 15%, Propylene glycol] | 7100 | <10 | 140 000 cfu/ml | 14 000 cfu/ml | <10 | 130 000 cfu/ml | 10 | <10 | 180 000 cfu/ml | 30 000 cfu/ml | 9000 | 120 000 cEu/ml | 8600 | 30 | 240 000 cfu/ml | –
C/C=C/C=C/C(=O)O [Sorbic acid 0.1%, Sorbic acid] | 490 | <10 | 140 000 cfu/ml | 240 cfu/ml | <10 | 130 000 cfu/ml | 30 | <10 | 180 000 cfu/ml | 20 000 cfu/ml | <10 | 120 000 cEu/ml | 190 | <10 | 240 000 cfu/ml | –
[K+].[K+].[O]=[Cr](=[O])([O-])[O][Cr](=[O])(=[O])[O-] [potassium dichromate] | – | – | – | – | – | – | – | – | – | – | – | – | – | – | – | cytotoxicity (indicator cells): cytotoxicity
